Assay results published in PubChem BioAssay (NCI).
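Results reflect a 48-hour exposure of cells in 96-well plates to compound at five concentrations. GI50 is the concentration that inhibits growth by half. TGI: concentration producing complete growth inhibition.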

What was measured:
Assay in all cases: NCI-60 cell line screen, 48 h
RXF 393 renal = system: RXF 393 renal
SK-MEL-5 melanoma = system: SK-MEL-5 melanoma
NCI/ADR-RES ovarian = system: NCI/ADR-RES ovarian
SNB-75 CNS = system: SNB-75 CNS
CAKI-1 renal = system: CAKI-1 renal
SK-MEL-2 melanoma = system: SK-MEL-2 melanoma
HT29 colon = system: HT29 colon
K-562 leukemia = system: K-562 leukemia
SF-268 CNS = system: SF-268 CNS
UACC-257 melanoma = system: UACC-257 melanoma
SW-620 colon = system: SW-620 colon
HL-60(TB) leukemia = system: HL-60(TB) leukemia
IGROV1 ovarian = system: IGROV1 ovarian
MDA-MB-435 = system: MDA-MB-435
U251 CNS = system: U251 CNS
HCT-116 colon = system: HCT-116 colon
NCI-H226 lung = system: NCI-H226 lung
MCF7 breast = system: MCF7 breast
SK-MEL-28 melanoma = system: SK-MEL-28 melanoma
OVCAR-5 ovarian = system: OVCAR-5 ovarian
UACC-62 melanoma = system: UACC-62 melanoma
T-47D breast = system: T-47D breast
OVCAR-8 ovarian = system: OVCAR-8 ovarian
DU-145 prostate = system: DU-145 prostate
BT-549 breast = system: BT-549 breast
SN12C renal = system: SN12C renal
RPMI-8226 leukemia = system: RPMI-8226 leukemia
MALME-3M melanoma = system: MALME-3M melanoma
NCI-H23 lung = system: NCI-H23 lung
COLO 205 colon = system: COLO 205 colon
SK-OV-3 ovarian = system: SK-OV-3 ovarian
NCI-H522 lung = system: NCI-H522 lung
786-0 renal = system: 786-0 renal
OVCAR-3 ovarian = system: OVCAR-3 ovarian
HOP-62 NSCLC = system: HOP-62 NSCLC
PC-3 prostate = system: PC-3 prostate
HCT-15 colon = system: HCT-15 colon
NCI-H460 lung = system: NCI-H460 lung
M14 melanoma = system: M14 melanoma
KM12 colon = system: KM12 colon
MDA-MB-231 breast = system: MDA-MB-231 breast
A549 NSCLC = system: A549 NSCLC
UO-31 renal = system: UO-31 renal
LOX IMVI melanoma = system: LOX IMVI melanoma
SNB-19 CNS = system: SNB-19 CNS
MOLT-4 leukemia = system: MOLT-4 leukemia
SF-539 CNS = system: SF-539 CNS
HS 578T breast = system: HS 578T breast
CCRF-CEM leukemia = system: CCRF-CEM leukemia
SR leukemia = system: SR leukemia
ACHN renal = system: ACHN renal
OVCAR-4 ovarian = system: OVCAR-4 ovarian
SF-295 CNS = system: SF-295 CNS
HCC-2998 colon = system: HCC-2998 colon

Q: What does the source list for `COc1cc(Cl)cc(-c2nn(-c3cccc(NC(=O)c4cccc(C(F)(F)F)c4)c3)cc2-c2ccncc2)c1`?
A: GI50 (RXF 393 renal): 1.87 µM; TGI (RXF 393 renal): > 100 µM; GI50 (SK-MEL-5 melanoma): 5.43 µM; TGI (SK-MEL-5 melanoma): > 100 µM; GI50 (NCI/ADR-RES ovarian): 5.37 µM; TGI (NCI/ADR-RES ovarian): > 100 µM; GI50 (SNB-75 CNS): 6.62 µM; TGI (SNB-75 CNS): > 100 µM; GI50 (CAKI-1 renal): 3.85 µM; TGI (CAKI-1 renal): > 100 µM; GI50 (SK-MEL-2 melanoma): 6.78 µM; TGI (SK-MEL-2 melanoma): > 100 µM; GI50 (HT29 colon): 3.37 µM; TGI (HT29 colon): > 100 µM; GI50 (K-562 leukemia): 4.69 µM; TGI (K-562 leukemia): > 100 µM; GI50 (SF-268 CNS): > 100 µM; TGI (SF-268 CNS): > 100 µM; GI50 (UACC-257 melanoma): > 100 µM; TGI (UACC-257 melanoma): > 100 µM; GI50 (SW-620 colon): > 100 µM; TGI (SW-620 colon): > 100 µM; GI50 (HL-60(TB) leukemia): 45.9 µM; TGI (HL-60(TB) leukemia): > 100 µM; GI50 (IGROV1 ovarian): > 100 µM; TGI (IGROV1 ovarian): > 100 µM; GI50 (MDA-MB-435): > 100 µM; TGI (MDA-MB-435): > 100 µM; GI50 (U251 CNS): 5.56 µM; TGI (U251 CNS): > 100 µM; GI50 (HCT-116 colon): 3.17 µM; TGI (HCT-116 colon): > 100 µM; GI50 (NCI-H226 lung): > 100 µM; TGI (NCI-H226 lung): > 100 µM; GI50 (MCF7 breast): 4.17 µM; TGI (MCF7 breast): > 100 µM; GI50 (SK-MEL-28 melanoma): > 100 µM; TGI (SK-MEL-28 melanoma): > 100 µM; GI50 (OVCAR-5 ovarian): > 100 µM; TGI (OVCAR-5 ovarian): > 100 µM; GI50 (UACC-62 melanoma): 8.04 µM; TGI (UACC-62 melanoma): > 100 µM; GI50 (T-47D breast): 4.69 µM; TGI (T-47D breast): > 100 µM; GI50 (OVCAR-8 ovarian): 6.88 µM; TGI (OVCAR-8 ovarian): > 100 µM; GI50 (DU-145 prostate): > 100 µM; TGI (DU-145 prostate): > 100 µM; GI50 (BT-549 breast): > 100 µM; TGI (BT-549 breast): > 100 µM; GI50 (SN12C renal): > 100 µM; TGI (SN12C renal): > 100 µM; GI50 (RPMI-8226 leukemia): 3.13 µM; TGI (RPMI-8226 leukemia): > 100 µM; GI50 (MALME-3M melanoma): > 100 µM; TGI (MALME-3M melanoma): > 100 µM; GI50 (NCI-H23 lung): 6.74 µM; TGI (NCI-H23 lung): > 100 µM; GI50 (COLO 205 colon): 33.7 µM; TGI (COLO 205 colon): > 100 µM; GI50 (SK-OV-3 ovarian): > 100 µM; TGI (SK-OV-3 ovarian): > 100 µM; GI50 (NCI-H522 lung): 1.99 µM; TGI (NCI-H522 lung): > 100 µM; GI50 (786-0 renal): 16.7 µM; TGI (786-0 renal): > 100 µM; GI50 (OVCAR-3 ovarian): 7.69 µM; TGI (OVCAR-3 ovarian): > 100 µM; GI50 (HOP-62 NSCLC): > 100 µM; TGI (HOP-62 NSCLC): > 100 µM; GI50 (PC-3 prostate): 2.71 µM; TGI (PC-3 prostate): > 100 µM; GI50 (HCT-15 colon): 3.35 µM; TGI (HCT-15 colon): > 100 µM; GI50 (NCI-H460 lung): 5.17 µM; TGI (NCI-H460 lung): > 100 µM; GI50 (M14 melanoma): 6.09 µM; TGI (M14 melanoma): > 100 µM; GI50 (KM12 colon): 4.53 µM; TGI (KM12 colon): > 100 µM; GI50 (MDA-MB-231 breast): 1.38 µM; TGI (MDA-MB-231 breast): 9.97 µM; GI50 (A549 NSCLC): 3.62 µM; TGI (A549 NSCLC): > 100 µM; GI50 (UO-31 renal): 2.71 µM; TGI (UO-31 renal): > 100 µM; GI50 (LOX IMVI melanoma): 15.7 µM; TGI (LOX IMVI melanoma): > 100 µM; GI50 (SNB-19 CNS): > 100 µM; TGI (SNB-19 CNS): > 100 µM; GI50 (MOLT-4 leukemia): 2.78 µM; TGI (MOLT-4 leukemia): > 100 µM; GI50 (SF-539 CNS): > 100 µM; TGI (SF-539 CNS): > 100 µM; GI50 (HS 578T breast): > 100 µM; TGI (HS 578T breast): > 100 µM; GI50 (CCRF-CEM leukemia): 4.38 µM; TGI (CCRF-CEM leukemia): > 100 µM; GI50 (SR leukemia): 2.48 µM; TGI (SR leukemia): > 100 µM; GI50 (ACHN renal): 7.21 µM; TGI (ACHN renal): > 100 µM; GI50 (OVCAR-4 ovarian): > 100 µM; TGI (OVCAR-4 ovarian): > 100 µM; GI50 (SF-295 CNS): 3.91 µM; TGI (SF-295 CNS): > 100 µM; GI50 (HCC-2998 colon): 6.66 µM; TGI (HCC-2998 colon): > 100 µM
